Test results: PubChem BioAssay (NCI)
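Interpolation was linear, between the two tested concentrations surrounding the appropriate level; five concentrations were tested over 48 hours in 96-well plates. TGI marks complete inhibition of growth.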

Assays:
Assay in all cases: NCI tumour cell line growth inhibition, 48 h
[1] = system: SK-MEL-5 melanoma
[2] = system: 786-0 renal
[3] = system: HL-60(TB) leukemia
[4] = system: SW-620 colon
[5] = system: UACC-257 melanoma
[6] = system: SK-OV-3 ovarian
[7] = system: SNB-78 CNS
[8] = system: LXFL 529 NSCLC
[9] = system: HOP-18 NSCLC
[10] = system: SF-539 CNS
[11] = system: OVCAR-8 ovarian
[12] = system: OVCAR-4 ovarian
[13] = system: LOX IMVI melanoma
[14] = system: SK-MEL-28 melanoma
[15] = system: UO-31 renal
[16] = system: IGROV1 ovarian
[17] = system: NCI-H522 lung
[18] = system: KM20L2 colon
[19] = system: SNB-75 CNS
[20] = system: ACHN renal
[21] = system: COLO 205 colon
[22] = system: SR leukemia
[23] = system: RPMI-8226 leukemia
[24] = system: A549 NSCLC
[25] = system: SN12C renal
[26] = system: DMS 114 small cell lung
[27] = system: M14 melanoma
[28] = system: SF-295 CNS
[29] = system: SF-268 CNS
[30] = system: DMS 273 small cell lung
[31] = system: DLD-1 colon
[32] = system: MOLT-4 leukemia
[33] = system: NCI-H460 lung
[34] = system: CAKI-1 renal
[35] = system: HOP-62 NSCLC
[36] = system: OVCAR-5 ovarian
[37] = system: SNB-19 CNS
[38] = system: TK-10 renal
[39] = system: HT29 colon
[40] = system: UACC-62 melanoma
[41] = system: HCC-2998 colon
[42] = system: NCI-H226 lung
[43] = system: EKVX NSCLC
[44] = system: RXF 393 renal
[45] = system: HCT-15 colon
[46] = system: M19-MEL melanoma
[47] = system: KM12 colon
[48] = system: CCRF-CEM leukemia
[49] = system: U251 CNS
[50] = system: OVCAR-3 ovarian
[51] = system: A498 renal
[52] = system: MALME-3M melanoma
[53] = system: HCT-116 colon
[54] = system: HOP-92 NSCLC

Measured: TGI

O=C1CC2C=CC1C2CO (centres undefined)
> 100 µM: all assays above
